Source: patent US20070092577A1, “Dietary calcium for reducing the production of reactive oxygen species” (University of Tennessee Research Foundation, priority 2005, published 2007)

Experiments:
NADPH oxidase = NADPH oxidase expression in 3T3-L1 adipocytes; assay type: cell-based, murine; details: added to glucose 30 mmol/L, 48 hours; nifedipine 10 μmol/L
Method: (§1) 3T3-L1 preadipocytes were incubated at a density of 8000 cells/cm^2 (10 cm^2 dish) and grown in Dulbecco's modified Eagle's medium (DMEM) containing 10% FBS and antibiotics (adipocyte medium) at 37° C. in 5% CO2 in air. Confluent preadipocytes were induced to differentiate with a standard differentiation medium consisting of DMEM-F 10 (1:1, vol/vol) medium supplemented with 1% FBS, 1 μM dexamethasone, IBMX (0.5 mM) and antibiotics (1% Penicillin-Streptomycin). Preadipocytes were maintained in this differentiation medium for 3 days and subsequently cultured in adipocyte medium. Cultures were re-fed every 2-3 days to allow 90% of cells to reach full differentiation before conducting chemical treatment. Chemicals were freshly diluted in adipocyte medium before treatment. […] Cell viability was measured via trypan blue exclusion. Adipocyte 18s, cyclin A, NADPH oxidase, and UCP2 were quantitatively measured using a Smart Cycler Real Time PCR System (Cepheid, Sunnyvale, Calif.) with a TaqMan 1000 Core Reagent Kit (Applied Biosystems, Branchburg, N.J.). […] Reactions of quantitative RT-PCR for standards and unknown samples were also performed according to the instructions of Smart Cycler System (Cepheid, Sunnyvale, Calif.) and TaqMan Real Time PCR Core Kit (Applied Biosystems, Branchburg, N.J.). The mRNA quantitation for each sample was further normalized using the corresponding 18s quantitation.

cyclin A = experiment: Cyclin A expression in 3T3-L1 adipocytes; assay type: cell-based, murine; details: added to glucose 30 mmol/L, 48 hours; nifedipine 10 μmol/L
Method: as §1

IL-6 = IL-6 expression in differentiated Zen-bio human adipocytes; assay type: cell-based; details: 10 nmol/L, 48 h; p=0.004
Method: (§2) Human pre-adipocytes used in this study were supplied by Zen-Bio (Research Triangle, N.C.). […] The cells are isolated from the stromal vascular fraction of human subcutaneous adipose tissue and differentiated in vitro as follows: […] Preadipocytes were maintained in this differentiation medium for 3 days and subsequently cultured in adipocyte medium in which BRL49653 and MIX were omitted. Cultures were re-fed every 2-3 days till fully differentiated. Cells were incubated in serum free medium overnight before chemical treatment. Chemicals were freshly diluted in adipocyte medium before treatment. […] Cell viability was measured via trypan blue exclusion. Adipocyte and muscle 18s, TNFα, IL-6, IL-8, IL-15 and adiponectin were quantitatively measured using a smart cycler real-time PCR system (Cepheid, Sunnyvale, Calif.) with a TaqMan 1000 Core Reagent Kit (Applied Biosystems, Branchburg, N.J.). […] Reactions of quantitative RT-PCR for standards and unknown samples were also performed according to the instructions of Smart Cycler System (Cepheid, Sunnyvale, Calif.) and TaqMan Real Time PCR Core Kit (Applied Biosystems, Branchburg, N.J.). The mRNA quantitation for each sample was further normalized using the corresponding 18s quantitation.

adiponectin = experiment: Adiponectin expression in differentiated Zen-bio human adipocytes; assay type: cell-based; details: 10 nmol/L 1α, 25-(OH)2-D3 or 10 μmol/L nifedipine, 48 h; p=0.377
Method: as §2

CD14 = CD14 expression in mouse (3T3-L1) adipocytes; assay type: cell-based; details: calcitriol 10 nmol/L, 48 hours
Method: RAW 264 macrophages and 3T3-L1 preadipocytes (American Type Culture Collection) were incubated at a density of 8000 cells/cm2 (10 cm2 dish) and grown in Dulbecco's modified Eagle's medium (DMEM) containing 10% FBS and antibiotics (adipocyte medium) at 37° C. in 5% CO2 in air. Confluent 3T3-L1 preadipocytes were induced to differentiate with a standard differentiation medium consisting of DMEM-F10 (1:1, vol/vol) medium supplemented with 1% FBS, 1 μM dexamethasone, IBMX (0.5 mM) and antibiotics (1% Penicillin-Streptomycin). Preadipocytes were maintained in this differentiation medium for 3 days and subsequently cultured in adipocyte medium. […]
Cells were washed with fresh adipocyte medium, re-fed with medium containing the indicated treatments, and incubated at 37° C. in 5% CO2 for 48 hours before analysis. Cell viability was measured via trypan blue exclusion.
Adipocyte and muscle 18s, CD14, TNFα, MIP, M-CSF, IL-6 and MCP-1 were quantitatively measured using a Smart Cycler Real Time PCR System (Cepheid, Sunnyvale, Calif.) with a TaqMan 1000 Core Reagent Kit (Applied Biosystems, Branchburg, N.J.). […] Reactions of quantitative RT-PCR for standards and unknown samples were also performed according to the instructions of Smart Cycler System (Cepheid, Sunnyvale, Calif.) and TaqMan Real Time PCR Core Kit (Applied Biosystems, Branchburg, N.J.). […]

TNFα = TNFα expression in RAW 264 macrophages; assay type: cell-based
Method: RAW 264 macrophages and 3T3-L1 preadipocytes (American Type Culture Collection) were incubated at a density of 8000 cells/cm2 (10 cm2 dish) and grown in Dulbecco's modified Eagle's medium (DMEM) containing 10% FBS and antibiotics (adipocyte medium) at 37° C. in 5% CO2 in air. Confluent 3T3-L1 preadipocytes were induced to differentiate with a standard differentiation medium consisting of DMEM-F10 (1:1, vol/vol) medium supplemented with 1% FBS, 1 μM dexamethasone, IBMX (0.5 mM) and antibiotics (1% Penicillin-Streptomycin). Preadipocytes were maintained in this differentiation medium for 3 days and subsequently cultured in adipocyte medium. Cultures were re-fed every 2-3 days to allow 90% cells to reach fully differentiation for 3T3-L1 adipocytes or grow to a confluence for RAW 264 before conducting chemical treatment.
Human adipocytes (Zen-Bio, Inc.), 3T3-L1 adipocytes, RAW264 macrophages were obtained and co-cultured by using transwell inserts with 0.4 μm porous membranes (Corning) to separate adipocytes and macrophages. All data are expressed as mean±SEM. Data were evaluated for statistical significance by analysis of one-way or two-way variance (ANOVA; means with different letter differ, p<0.05).
Adipocyte and muscle 18s, CD14, TNFα, MIP, M-CSF, IL-6 and MCP-1 were quantitatively measured using a Smart Cycler Real Time PCR System (Cepheid, Sunnyvale, Calif.) with a TaqMan 1000 Core Reagent Kit (Applied Biosystems, Branchburg, N.J.). The primers and probe sets were obtained from Applied Biosystems TaqMan® Assays-on-Demand™ Gene Expression primers and probe set collection according to manufacture's instruction. […] Reactions of quantitative RT-PCR for standards and unknown samples were also performed according to the instructions of Smart Cycler System (Cepheid, Sunnyvale, Calif.) and TaqMan Real Time PCR Core Kit (Applied Biosystems, Branchburg, N.J.). The mRNA quantitation for each sample was further normalized using the corresponding 18s quantitation.

C=C1/C(=C\C=C2/CCC[C@]3(C)[C@@H]([C@H](C)CCCC(C)(C)O)CC[C@@H]23)C[C@@H](O)C[C@@H]1O [calcitriol, 1, 25-Dihydroxyvitamin D]
effect on NADPH oxidase expression (NADPH oxidase): stimulated
effect on glucose stimulated cyclin A expression (cyclin A): augmented
stimulation of IL-6 expression (IL-6): 53%
effect on adiponectin expression (adiponectin): no effect
increase of CD14 expression (CD14): 45%
effect on TNFα expression in macrophages in co-culture (TNFα; co-culture with differentiated 3T3-L1 adipocytes): further enhanced
stimulation of TNFα expression (TNFα; macrophages cultured alone, calcitriol 10 nmol/L, 48 hours): 91%
